Test results from patent publication US20240262806A1, “INHIBITORS OF NLRP3” (PTC THERAPEUTICS, INC., priority 2021, published 2024).
Structures can show the parent of a compound that is named as a salt. Where two headings read alike, the source gives them in different places.

Tested on: NLRP3 inflammasome
Assay: IL-1β Secretion Assay (NLRP3-dependent IL-1β secretion in PMA-differentiated THP-1 cells, nigericin activation, HTRF)
Type: cell-based
Conditions: 100 ng/mL PMA 24 h, compound 20 h, 2.5 μM Nigericin 3 h, read-out: IC50 IL-1β Inhibition
Experimental: Cells were washed 1× with 100 ul PBS and replaced with fresh RPMI+5% FBS. Compounds were serial diluted in DMSO with 3 fold dilution for a total of 7 concentrations.
Compounds, once produced and prepared according to the present invention, can be assessed in variety of assays to characterize their activities. […] IC50 values of IL1β inhibition were calculated from the plot of percentage of inhibition versus the inhibitor concentration by a logistics fit. TABLE I depict examples of compounds according to generic Formulae I. Data which is <1 nM is listed as *****; data 1-10 nM is listed as ****; data 10-100 nM is listed as ***, data 100-300 nM is listed as **, data >300 nM is listed as *.

[1] = Homo sapiens, THP-1, THP-1 cells

Row | Structure (SMILES) | IC50 [1] | IC50 (THP-1 cells)
1 | Cc1cc(C#N)ccc1-c1nnc(N[C@@H]2CCCN(C)C2)c2cnccc12 [Compound I-217] | 10 to 100 nM | –
2 | Cc1ccc(-c2nnc(N[C@@H]3CCCN(C)C3)c3ccccc23)c(OC(F)F)c1 [Compound I-135] | 1 to 10 nM | –
3 | CN1CC[C@@H](F)[C@@H](Nc2nnc(-c3ccc(C(F)(F)F)cc3O)c3cccn23)C1 [Compound I-486, 2-(4-(((3S,4R)-4-Fluoro-1-methylpiperidin-3-yl)amino)pyrrolo[1,2-d][1,2,4]triazin-1-yl)-5-(trifluoromethyl)phenol] | 10 to 100 nM | –
4 | C[C@H](O)CNc1nnc(-c2c(O)cc(Cl)cc2F)c2cccn12 [Compound I-577] | 10 to 100 nM | –
5 | CCN1C[C@H](O)C[C@@H](Nc2nnc(-c3ccc(OC(F)(F)F)cc3O)c3c(F)ccn23)C1 [Compound I-605] | 100 to 300 nM | –
6 | CN1CCOCC(Nc2nnc(-c3ccc(C(F)(F)F)cc3O)c3ccncc23)C1 (stereo not drawn) [Compound I-262] | 1 to 10 nM | –
7 | Cn1cc(Nc2nnc(-c3ccc(C(F)(F)F)cc3O)c3ccncc23)cn1 [Compound I-180] | 1 to 10 nM | –
8 | Cc1ccc(-c2nnc(N[C@@H]3CCCN(C)C3)c3c2CCC3)c(OC(F)F)c1 [Compound I-244] | 10 to 100 nM | –
9 | Cc1cc2c(-c3ccc(C4CC4)cc3OC(F)(F)F)nnc(N[C@@H]3CCCN(C)C3)n2n1 [Compound I-419, (R)-4-(4-Cyclopropyl-2-(trifluoromethoxy)phenyl)-2-methyl-N-(1-methylpiperidin-3-yl)pyrazolo[1,5-d][1,2,4]triazin-7-amine] | – | 10 to 100 nM
10 | CCN1CCC[C@@H](Nc2nnc(-c3ccc(C4CC4)cc3C(F)F)c3cccn23)C1 [Compound I-508] | 1 to 10 nM | –
11 | FC(F)Oc1cc(C(F)(F)F)ccc1-c1nnc(N[C@H]2CCOC2)n2cccc12 [Compound I-458] | 100 to 300 nM | –
12 | CCN1CCC[C@@H](Nc2nnc(-c3ccc(C(F)(F)F)cc3OC(F)F)c3cncn23)C1 [Compound I-574, (R)-1-(2-(Difluoromethoxy)-4-(trifluoromethyl)phenyl)-N-(1-ethylpiperidin-3-yl)imidazo[1,5-d][1,2,4]triazin-4-amine] | < 1 nM | –
13 | Cc1cc2c(-c3c(O)cc(C(F)(F)F)cc3F)nnc(N[C@@H]3CCCN(C)C3)n2c1 [Compound I-607] | < 1 nM | –
14 | COc1cc(O)c(-c2nnc(N[C@@H]3CCCN(CCO)C3)n3cccc23)c(F)c1 [Compound I-457] | 1 to 10 nM | –
15 | CN1CCC[C@@H](Nc2nnc(-c3ccc(C#N)cc3O)c3ccccc23)C1 [Compound I-24] | < 1 nM | –
16 | Oc1cc(C(F)(F)F)ccc1-c1nnc(N[C@@H]2CCCN(CC(F)F)C2)c2cnccc12 [Compound I-277] | < 1 nM | –
17 | Cc1cc2c(-c3ccc(Br)cc3OC(F)(F)F)nnc(N[C@@H]3CCCN(C)C3)n2n1 [Compound I-374, (R)-4-(4-Bromo-2-(trifluoromethoxy)phenyl)-2-methyl-N-(1-methylpiperidin-3-yl)pyrazolo[1,5-d][1,2,4]triazin-7-amine] | 1 to 10 nM | –
18 | CN1CCC[C@@H](Nc2nnc(-c3ccc(Cl)cc3OC(F)F)c3c2CCC3)C1 [Compound I-241] | 10 to 100 nM | –
19 | Oc1cc(Br)ccc1-c1nnc(N[C@@H]2CCCN(CC(F)F)C2)n2nccc12 [Compound I-548] | 1 to 10 nM | –
20 | CCN1CCC[C@@H](Nc2nnc(-c3c(O)cc(C4CC4)cc3F)c3cccn23)C1 [Compound I-495] | < 1 nM | –
21 | COc1cc(C(F)F)ccc1-c1nnc(N[C@@H]2CCCN(C)C2)c2cnccc12 [Compound I-234] | 10 to 100 nM | –

Row | Structure (SMILES) | IC50 [1] | IC50 (THP-1 cells)
22 | CN1CCC[C@@H](Nc2nnc(-c3c(F)ccc(C4CC4)c3O)c3ccncc23)C1 [Compound I-210] | 10 to 100 nM | –
23 | CC(C)N1CCC[C@@H](Nc2nnc(-c3ccc(C(F)(F)F)cc3OC(F)F)c3c(F)ccn23)C1 [Compound I-592] | < 1 nM | –
24 | CN1C[C@H](F)C[C@@H](Nc2nnc(-c3ccc(C(F)(F)F)cc3O)c3c(F)ccn23)C1 [Compound I-596] | 1 to 10 nM | –
25 | CCN1CCC[C@@H](Nc2nnc(-c3ccc(OC(F)(F)F)cc3O)c3cc(C)nn23)C1 [Compound I-584] | < 1 nM | –
26 | Cc1cc(O)c(-c2nnc(N[C@@H]3CCCN(CCO)C3)c3cnccc23)c(F)c1 [Compound I-273] | < 1 nM | –
27 | Cc1cc(O)c(-c2nnc(N[C@@H]3CCCN(CC(F)(F)F)C3)n3cccc23)c(F)c1 [Compound I-570] | 1 to 10 nM | –
28 | CN1CCC(c2ccc(-c3nnc(N[C@@H]4CCCN(C)C4)c4ccccc34)c(O)c2)C1 (stereo partly drawn) [Compound I-107] | 10 to 100 nM | –
29 | Cc1cc(O)c(-c2nnc(N[C@@H]3CCCN(CC(F)F)C3)n3cccc23)c(F)c1 [Compound I-511] | 1 to 10 nM | –
30 | Cc1cccc(-c2nnc(N[C@@H]3CCCN(C)C3)c3cnccc23)c1O [Compound I-82] | < 1 nM | –
31 | CN1CCC[C@@H](Nc2nnc(-c3ccc(OC(F)(F)F)cc3C(F)F)c3ccncc23)C1 [Compound I-319] | 1 to 10 nM | –
32 | Oc1cc(C(F)(F)F)ccc1-c1nnc(N[C@H]2CNC[C@H](F)C2)c2cnccc12 [Compound I-306] | < 1 nM | –
33 | CC(C)N1CCC[C@@H](Nc2nnc(-c3ccc(Cl)cc3O)c3cccn23)C1 [Compound I-404] | < 1 nM | –
34 | Cc1ccc(-c2nnc(N[C@@H]3CCCN(C)C3)c3ccccc23)c(F)c1F [Compound I-165] | 10 to 100 nM | –
35 | CN(C)CC1CCN(c2nnc(-c3ccc(C(F)(F)F)cc3O)c3ccccc23)C1 (stereo not drawn) [Compound I-203] | 10 to 100 nM | –
36 | CC(C)N1CCC[C@@H](Nc2nnc(-c3ccc(C(F)(F)F)cc3O)c3ccncc23)C1 [Compound I-295] | < 1 nM | –
37 | Cc1cc2c(N[C@@H]3CCCN(C)C3)nnc(-c3ccc(C(F)(F)F)cc3O)n2n1 [Compound I-336] | 10 to 100 nM | –
38 | CN1CCC[C@@H](Nc2nnc(-c3c(O)cc(C(F)(F)F)cc3F)c3cccn23)C1 [Compound I-372] | < 1 nM | –
39 | Oc1cc(C(F)(F)F)ccc1-c1nnc(NCC2CCN2)c2ccccc12 (stereo not drawn) [Compound I-150] | 10 to 100 nM | –
40 | CN1CCC[C@@H](Nc2nnc(-c3c(F)cc(Cl)cc3F)c3ccncc23)C1 [Compound I-221] | 1 to 10 nM | –
41 | Cn1cc(CNc2nnc(-c3ccc(C(F)(F)F)cc3O)c3ccncc23)cn1 [Compound I-174] | 10 to 100 nM | –
42 | COc1ccc(-c2nnc(N[C@@H]3CCCN(CCO)C3)n3cccc23)c(O)c1 [Compound I-358] | 1 to 10 nM | –

Row | Structure (SMILES) | IC50 [1] | IC50 (THP-1 cells)
43 | CN1CCC[C@@H](Nc2nnc(-c3ccc(Cl)c(N)c3O)c3ccccc23)C1 [Compound I-163, (R)-2-Amino-3-chloro-6-(4-((1-methylpiperidin-3-yl)amino)phthalazin-1-yl)phenol] | 10 to 100 nM | –
44 | CN1CCC[C@@H](Nc2nnc(-c3ccc(C(F)(F)F)cc3O)c3nccn23)C1 [Compound I-398, 2-[5-[[(3R)-1-Methyl-3-piperidyl]amino]imidazo[1,2-d][1,2,4]triazin-8-yl]-5-(trifluoromethyl)phenol formic acid salt] | > 300 nM | –
45 | CCN1CCC[C@@H](Nc2nnc(-c3ccc(C(F)(F)F)cc3OC(F)F)c3c(F)ccn23)C1 [Compound I-566] | 1 to 10 nM | –
46 | OCCN1CCC[C@@H](Nc2nnc(-c3ccc(C(F)(F)F)cc3O)c3ccncc23)C1 [Compound I-55] | < 1 nM | –
47 | CN(C)C1CCCN(c2nnc(-c3ccc(C(F)(F)F)cc3O)c3cnccc23)C1 (stereo not drawn) [Compound I-152] | 1 to 10 nM | –
48 | CN1CCC[C@@H](Nc2nnc(-c3ccc(OC(F)(F)F)cc3OC(F)F)c3cccn23)C1 [Compound I-519] | 1 to 10 nM | –
49 | FC(F)(F)c1ccc(-c2nnc(N[C@@H]3CCCN(C4CCOC4)C3)n3cccc23)c(C(F)(F)F)c1 (stereo partly drawn) [Compound I-517] | 1 to 10 nM | –
50 | CCN1CCC[C@@H](Nc2nnc(-c3ccc(Cl)cc3O)c3cncn23)C1 [Compound I-442] | < 1 nM | –
51 | Oc1cc(Cl)ccc1-c1nnc(N[C@@H]2CCCN(CC(F)(F)F)C2)n2cncc12 [Compound I-558] | 1 to 10 nM | –
52 | CN1CCC[C@@H](Nc2nnc(-c3ccc(C(F)(F)F)cc3O)c3ccoc23)C1 [Compound I-313, (R)-2-(7-((1-Methylpiperidin-3-yl)amino)furo[2,3-d]pyridazin-4-yl)-5-(trifluoromethyl)phenol] | < 1 nM | –
53 | CN1CCC[C@@H](Nc2nnc(-c3ccc(Cl)cc3OC(F)F)c3cccn23)C1 [Compound I-356, 1-[4-Chloro-2-(difluoromethoxy)phenyl]-N-[(3R)-1-methyl-3-piperidyl]pyrrolo[1,2-d][1,2,4]triazin-4-amine] | 1 to 10 nM | –
54 | CCc1ccc(-c2nnc(N[C@@H]3CCCN(C)C3)c3cnccc23)c(O)c1 [Compound I-307] | < 1 nM | –
55 | COc1nc(C)ccc1-c1nnc(N[C@@H]2CCCN(C)C2)c2ccccc12 [Compound I-160] | 100 to 300 nM | –
56 | CN1CCCCC(Nc2nnc(-c3ccc(C(F)(F)F)cc3O)c3ccccc23)C1 (stereo not drawn) [Compound I-95] | 1 to 10 nM | –
57 | Cc1cc(F)c(-c2nnc(N[C@@H]3CCCN(C4CCOC4)C3)n3cccc23)c(OC(F)F)c1 (stereo partly drawn) [Compound I-488] | 10 to 100 nM | –
58 | CN1CCC[C@@H](Nc2nnc(-c3ccc(Cl)cc3F)c3ccncc23)C1 [Compound I-129] | < 1 nM | –
59 | Oc1cc(C(F)(F)F)ccc1-c1nnc(N[C@@H]2CCCN(C3CCOCC3)C2)n2cccc12 [Compound I-343] | 1 to 10 nM | –
60 | CN1CCC[C@@H](Nc2nnc(-c3ccc(C4CCOC4)cc3O)c3ccccc23)C1 (stereo partly drawn) [Compound I-61] | 1 to 10 nM | –
61 | CN1CCC[C@@H](Nc2nnc(-c3ccc(C4CC4)cc3OC(F)F)c3ccncc23)C1 [Compound I-247] | 1 to 10 nM | –
62 | Cc1cc2c(-c3ccc(C(F)(F)F)cc3OC(F)F)nnc(N[C@@H]3CCCN(C)C3)n2c1 [Compound I-591] | 1 to 10 nM | –
63 | CC(C)N1CCC[C@@H](Nc2nnc(-c3ccc(C(F)(F)F)cc3O)c3cccn23)C1 [Compound I-480] | 1 to 10 nM | –
